We go through eleven compounds from the NIST ThermoML archive (doi:10.1021/je101031j).

Series [1] is described as follows: refractive index (Na D-line) (dimensionless). The following applies: 298.15 K; 101.33 kPa; Liquid; Standard Abbe refractometry.
For series [2] the following is noted: 298.15 K; 101.33 kPa; Liquid; Vibrating tube method.
A short description of series [3]: excess molar enthalpy (molar enthalpy of mixing); xn = mol fraction of the nth substance listed. The following applies: 298.15 K, 101.3 kPa, Liquid, Calvet calorimetry.

± gives the expanded uncertainty stated by the source.

For the compound `CCC(C)(C)O` [2-methylbutan-2-ol], the refractive index in series [1] worked out at 1.4019 ± 0.0005. Besides, the mass density in series [2] was found to be 804.8 ± 0.31 kg/m3.

Regarding `CCC(C)(C)O` [2-methylbutan-2-ol] + CCCCCO, the excess molar enthalpy in series [3] (x1 = 0.0899) was -0.0499 ± 0.000574 kcal/mol; in series [3] (x1 = 0.18), -0.09866 ± 0.000956 kcal/mol; in series [3] (x1 = 0.27) it was -0.1359 ± 0.00124 kcal/mol; in series [3] (x1 = 0.3664), -0.1551 ± 0.00139 kcal/mol; in series [3] (x1 = 0.4566), -0.1636 ± 0.00146 kcal/mol; in series [3] (x1 = 0.5468), -0.1618 ± 0.00143 kcal/mol. Also, the excess molar enthalpy in series [3] (x1 = 0.6372) was -0.1515 ± 0.00136 kcal/mol; in series [3] (x1 = 0.7278) it was -0.1268 ± 0.00117 kcal/mol; in series [3] (x1 = 0.8185) it was -0.09235 ± 0.000908 kcal/mol; in series [3] (x1 = 0.9091), -0.0493 ± 0.000574 kcal/mol.

With `CCC(C)(C)O` [2-methylbutan-2-ol] + CCCCO, the excess molar enthalpy in series [3] (x1 = 0.09) was -0.064 ± 0.000669 kcal/mol; in series [3] (x1 = 0.1801), -0.1142 ± 0.00108 kcal/mol; in series [3] (x1 = 0.2702) it was -0.1553 ± 0.00139 kcal/mol; in series [3] (x1 = 0.3707), -0.1793 ± 0.00158 kcal/mol; in series [3] (x1 = 0.4609), -0.1912 ± 0.00167 kcal/mol; in series [3] (x1 = 0.551) it was -0.1882 ± 0.00165 kcal/mol. For the same compound, the excess molar enthalpy in series [3] (x1 = 0.6412) is -0.1746 ± 0.00153 kcal/mol; in series [3] (x1 = 0.7313) it was -0.145 ± 0.00131 kcal/mol; in series [3] (x1 = 0.8198) it was -0.102 ± 0.00098 kcal/mol; in series [3] (x1 = 0.9099) it was -0.0509 ± 0.000574 kcal/mol.

`CCC(C)(C)O` [2-methylbutan-2-ol] + CCCO: the excess molar enthalpy is -0.0608 ± 0.000645 kcal/mol in series [3] (x1 = 0.09); -0.1096 ± 0.00103 kcal/mol in series [3] (x1 = 0.1801); -0.1568 ± 0.00141 kcal/mol in series [3] (x1 = 0.2802); -0.1879 ± 0.00165 kcal/mol in series [3] (x1 = 0.3701); -0.2053 ± 0.00177 kcal/mol in series [3] (x1 = 0.4599); -0.2041 ± 0.00177 kcal/mol in series [3] (x1 = 0.5497). The excess molar enthalpy is -0.1921 ± 0.00167 kcal/mol in series [3] (x1 = 0.6395), -0.1605 ± 0.00143 kcal/mol in series [3] (x1 = 0.7292), -0.1131 ± 0.00105 kcal/mol in series [3] (x1 = 0.8189) and -0.0556 ± 0.000621 kcal/mol in series [3] (x1 = 0.9088).

In the case of `CCC(C)(C)O` [2-methylbutan-2-ol] + CCO, the excess molar enthalpy in series [3] (x1 = 0.0898) was -0.0594 ± 0.000645 kcal/mol; in series [3] (x1 = 0.1796), -0.1128 ± 0.00105 kcal/mol; in series [3] (x1 = 0.2807) it was -0.1686 ± 0.00148 kcal/mol; in series [3] (x1 = 0.3707), -0.2039 ± 0.00177 kcal/mol; in series [3] (x1 = 0.4607), -0.2271 ± 0.00194 kcal/mol; in series [3] (x1 = 0.5507), -0.2326 ± 0.00198 kcal/mol. For the same compound, the excess molar enthalpy is -0.2178 ± 0.00186 kcal/mol in series [3] (x1 = 0.6406), -0.1842 ± 0.0016 kcal/mol in series [3] (x1 = 0.7306), -0.1302 ± 0.0012 kcal/mol in series [3] (x1 = 0.8205) and -0.0648 ± 0.000693 kcal/mol in series [3] (x1 = 0.9103).

On to `CCC(C)(C)O` [2-methylbutan-2-ol] + CO, for which the excess molar enthalpy in series [3] (x1 = 0.0908) was -0.0613 ± 0.000669 kcal/mol; in series [3] (x1 = 0.1814) it was -0.1248 ± 0.00115 kcal/mol; in series [3] (x1 = 0.2731), -0.1921 ± 0.00167 kcal/mol; in series [3] (x1 = 0.3644) it was -0.2497 ± 0.00213 kcal/mol; in series [3] (x1 = 0.4608), -0.2868 ± 0.00239 kcal/mol; in series [3] (x1 = 0.5513) it was -0.3031 ± 0.00263 kcal/mol. For the same compound, the excess molar enthalpy in series [3] (x1 = 0.6416) was -0.2905 ± 0.00239 kcal/mol; in series [3] (x1 = 0.7319) it was -0.2556 ± 0.00217 kcal/mol; in series [3] (x1 = 0.8195), -0.1911 ± 0.00167 kcal/mol; in series [3] (x1 = 0.9101), -0.1008 ± 0.000956 kcal/mol.

On to `CCCCO` [butan-1-ol], for which, in series [1], the refractive index stood at 1.3973 ± 0.0005. For the same compound, the mass density in series [2] turned out to be 805.61 ± 0.31 kg/m3.

Regarding `CCO` [ethanol], in series [1], the refractive index is reported as 1.3591 ± 0.0005. The mass density in series [2] was 785.22 ± 0.31 kg/m3.

Consider `CO` [methanol], for which, in series [1], the refractive index is 1.3264 ± 0.0005. The mass density in series [2] worked out at 786.42 ± 0.31 kg/m3.

Regarding `CCCCCO` [pentan-1-ol], in series [1], the refractive index amounted to 1.4086 ± 0.0005. In addition, in series [2], the mass density was found to be 810.82 ± 0.31 kg/m3.

In the case of `CCCO` [propan-1-ol], in series [1], the refractive index is 1.383 ± 0.0005. Besides, the mass density in series [2] is listed as 799.46 ± 0.31 kg/m3.

For orientation: refractive index means a measure of how strongly the sample bends light. For orientation: mass density means the mass of a sample divided by its volume.
